Assay results published in patent US10758534B2 (Vertex Pharmaceuticals Incorporated, priority 2014, dated 2020).

These molecules were tested against T1, F508del (Homo sapiens, UniProt P13569, DEL508-508) (assay: Protocol 2: FRET membrane potential optical assay (VIPR), identification of correction compounds). Details: F508del CFTR modulator activity; compounds of Table 1; read-out: EC30.
T1 construct: expressed in transfected cells
Type: cell-based
How it was run: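 NIH3T3 mouse fibroblasts stably expressing F508del-CFTR incubated with compound 16 h at 37 °C in serum-free medium, then loaded with CC2-DMPE/DiSBAC2(3) FRET dyes. Channel activated with 10 μM forskolin plus 20 μM genistein in Cl⁻-free (gluconate) bath; depolarisation from Cl⁻ efflux read on VIPR II.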

T1 sequence (P13569 with tags, fused parts or gaps DEL508-508): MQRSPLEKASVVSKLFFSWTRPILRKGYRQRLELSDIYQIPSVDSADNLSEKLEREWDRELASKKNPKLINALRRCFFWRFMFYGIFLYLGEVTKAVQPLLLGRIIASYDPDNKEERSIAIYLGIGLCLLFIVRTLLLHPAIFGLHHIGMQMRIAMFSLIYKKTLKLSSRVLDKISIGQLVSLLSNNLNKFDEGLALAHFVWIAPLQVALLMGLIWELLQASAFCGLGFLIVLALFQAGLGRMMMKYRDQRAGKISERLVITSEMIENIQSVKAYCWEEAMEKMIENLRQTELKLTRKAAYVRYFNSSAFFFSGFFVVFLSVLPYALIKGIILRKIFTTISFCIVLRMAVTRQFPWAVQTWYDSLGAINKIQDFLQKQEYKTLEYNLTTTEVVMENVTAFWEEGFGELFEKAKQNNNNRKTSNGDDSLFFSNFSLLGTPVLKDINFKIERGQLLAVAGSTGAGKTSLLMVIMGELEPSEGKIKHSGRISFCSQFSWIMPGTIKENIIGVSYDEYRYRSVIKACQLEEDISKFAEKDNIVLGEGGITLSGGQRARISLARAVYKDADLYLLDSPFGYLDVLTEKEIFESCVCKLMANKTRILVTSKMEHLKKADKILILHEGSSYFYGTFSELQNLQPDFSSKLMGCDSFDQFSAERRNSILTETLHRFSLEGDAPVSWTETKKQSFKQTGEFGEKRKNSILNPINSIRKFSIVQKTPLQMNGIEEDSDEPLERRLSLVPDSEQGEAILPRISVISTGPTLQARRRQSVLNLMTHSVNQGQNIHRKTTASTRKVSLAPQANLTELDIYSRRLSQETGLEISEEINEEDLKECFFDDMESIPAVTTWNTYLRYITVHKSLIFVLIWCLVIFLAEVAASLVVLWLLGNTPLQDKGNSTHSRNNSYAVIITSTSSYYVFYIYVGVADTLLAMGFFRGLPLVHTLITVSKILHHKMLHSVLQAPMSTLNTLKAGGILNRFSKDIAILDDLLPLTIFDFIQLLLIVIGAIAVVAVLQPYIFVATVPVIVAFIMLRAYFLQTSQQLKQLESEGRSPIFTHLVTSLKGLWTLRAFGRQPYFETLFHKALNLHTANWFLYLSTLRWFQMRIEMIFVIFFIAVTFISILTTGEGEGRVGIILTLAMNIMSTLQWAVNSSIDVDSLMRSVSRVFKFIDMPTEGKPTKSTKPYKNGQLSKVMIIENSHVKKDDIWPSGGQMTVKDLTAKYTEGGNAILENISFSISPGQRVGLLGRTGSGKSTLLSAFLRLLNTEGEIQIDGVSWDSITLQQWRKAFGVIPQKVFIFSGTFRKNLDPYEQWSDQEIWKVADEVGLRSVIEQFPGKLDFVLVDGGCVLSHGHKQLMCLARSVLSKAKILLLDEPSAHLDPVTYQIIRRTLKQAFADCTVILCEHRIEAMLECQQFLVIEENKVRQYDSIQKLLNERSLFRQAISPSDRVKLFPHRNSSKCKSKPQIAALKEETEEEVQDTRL

Row | EC30 [nM] | SMILES
1 | < 3000 | Cc1ccc(-c2ccc(C(=O)NS(=O)(=O)c3cccnc3N)c(N3C[C@@H](C)CC3(C)C)n2)c(F)c1 [Compound 2613, N-[(2-amino-3-pyridyl)sulfonyl]-6-(2-fluoro-4-methyl-phenyl)-2-[(4S)-2,2,4-trimethylpyrrolidin-1-yl]pyridine-3-carboxamide]
2 | < 3000 | Cc1c(F)cccc1-c1ccc(C(=O)NS(=O)(=O)c2cccc(N)n2)c(N2C[C@@H](C)CC2(C)C)n1 [Compound 2616, N-[(6-amino-2-pyridyl)sulfonyl]-6-(3-fluoro-2-methyl-phenyl)-2-[(4S)-2,2,4-trimethylpyrrolidin-1-yl]pyridine-3-carboxamide]
3 | < 3000 | CC1CN(c2ncccc2C(=O)NS(=O)(=O)c2cccc(OCc3ccc(C(F)(F)F)cc3)n2)C(C)(C)C1 (stereo not drawn) [Compound 2618, N—[[6-[[4-(trifluoromethyl)phenyl]methoxy]-2-pyridyl]sulfonyl]-2-(2,2,4-trimethylpyrrolidin-1-yl)pyridine-3-carboxamide]
4 | 3000 to 10000 | CCCCN1CCCN(c2cccc(S(=O)(=O)NC(=O)c3cccnc3N3CC(C)CC3(C)C)n2)CC1 (stereo not drawn) [Compound 2620, N—[[6-(4-butyl-1,4-diazepan-1-yl)-2-pyridyl]sulfonyl]-2-(2,2,4-trimethylpyrrolidin-1-yl)pyridine-3-carboxamide]
5 | 3000 to 10000 | CC(C)Oc1ccccc1-c1ccc(C(=O)NS(=O)(=O)c2cccnc2N)c(N2C[C@@H](C)CC2(C)C)n1 [Compound 2623, N-[(2-amino-3-pyridyl)sulfonyl]-6-(2-isopropoxyphenyl)-2-[(4S)-2,2,4-trimethylpyrrolidin-1-yl]pyridine-3-carboxamide]
6 | 3000 to 10000 | CC(C)OC(=O)Nc1cccc(S(=O)(=O)NC(=O)c2ccc(C3=CCCNC3)nc2N2C[C@@H](C)CC2(C)C)n1 [Compound 2624, isopropyl N—[6-[[6-(1,2,3,6-tetrahydropyridin-5-yl)-2-[(4S)-2,2,4-trimethylpyrrolidin-1-yl]pyridine-3-carbonyl]sulfamoyl]-2-pyridyl]carbamate]
7 | < 3000 | CC1CN(c2ncccc2C(=O)NS(=O)(=O)c2cccc(OCCc3ccccc3F)n2)C(C)(C)C1 (stereo not drawn) [Compound 2625, N—[[6-[2-(2-fluorophenyl)ethoxy]-2-pyridyl]sulfonyl]-2-(2,2,4-trimethylpyrrolidin-1-yl)pyridine-3-carboxamide]
8 | < 3000 | COc1ncc(-c2ccc(C(=O)NS(=O)(=O)c3cccnc3N)c(N3C[C@@H](C)CC3(C)C)n2)cc1F [Compound 2628, N-[(2-amino-3-pyridyl)sulfonyl]-6-(5-fluoro-6-methoxy-3-pyridyl)-2-[(4S)-2,2,4-trimethylpyrrolidin-1-yl]pyridine-3-carboxamide]
9 | < 3000 | CC1CN(c2ncccc2C(=O)NS(=O)(=O)c2cccc(NCCc3ccccc3Cl)n2)C(C)(C)C1 (stereo not drawn) [Compound 2632, N—[[6-[2-(2-chlorophenyl)ethylamino]-2-pyridyl]sulfonyl]-2-(2,2,4-trimethylpyrrolidin-1-yl)pyridine-3-carboxamide]
10 | 3000 to 10000 | C[C@@H]1CN(c2nc(C3=CCCN(C(=O)CC4CCCCC4)C3)ccc2C(=O)NS(=O)(=O)c2cccc(N)n2)C(C)(C)C1 [Compound 2633, N-[(6-amino-2-pyridyl)sulfonyl]-6-[1-(2-cyclohexylacetyl)-3,6-dihydro-2H-pyridin-5-yl]-2-[(4S)-2,2,4-trimethylpyrrolidin-1-yl]pyridine-3-carboxamide]
11 | > 10000 | C[C@@H]1CN(c2nc(-c3cccc4[nH]ccc34)ccc2C(=O)NS(=O)(=O)c2ccc[nH]c2=O)C(C)(C)C1 [Compound 2636, 6-(1H-indol-4-yl)-N-[(2-oxo-1H-pyridin-3-yl)sulfonyl]-2-[(4S)-2,2,4-trimethylpyrrolidin-1-yl]pyridine-3-carboxamide]
12 | < 3000 | COc1ccccc1Oc1cccc(S(=O)(=O)NC(=O)c2cccnc2N2CC(C)CC2(C)C)n1 (stereo not drawn) [Compound 2637, N—[[6-(2-methoxyphenoxy)-2-pyridyl]sulfonyl]-2-(2,2,4-trimethylpyrrolidin-1-yl)pyridine-3-carboxamide]
13 | < 3000 | Cc1cc(F)cc(-c2ccc(C(=O)NS(=O)(=O)c3cccc(N)n3)c(N3C[C@@H](C)CC3(C)C)n2)c1 [Compound 2638, N-[(6-amino-2-pyridyl)sulfonyl]-6-(3-fluoro-5-methyl-phenyl)-2-[(4S)-2,2,4-trimethylpyrrolidin-1-yl]pyridine-3-carboxamide]
14 | < 3000 | CC1CN(c2ncccc2C(=O)NS(=O)(=O)c2cccc(Nc3ccccc3)n2)C(C)(C)C1 (stereo not drawn) [Compound 2639, N-[(6-anilino-2-pyridyl)sulfonyl]-2-(2,2,4-trimethylpyrrolidin-1-yl)pyridine-3-carboxamide]
15 | < 3000 | CC1CN(c2ncccc2C(=O)NS(=O)(=O)c2cccc(N3CCC(C(F)(F)F)CC3)n2)C(C)(C)C1 (stereo not drawn) [Compound 2641, N—[[6-[4-(trifluoromethyl)-1-piperidyl]-2-pyridyl]sulfonyl]-2-(2,2,4-trimethylpyrrolidin-1-yl)pyridine-3-carboxamide]
16 | < 3000 | CCOc1ccc(CCNc2cccc(S(=O)(=O)NC(=O)c3cccnc3N3CC(C)CC3(C)C)n2)cc1 (stereo not drawn) [Compound 2642, N—[[6-[2-(4-ethoxyphenyl)ethylamino]-2-pyridyl]sulfonyl]-2-(2,2,4-trimethylpyrrolidin-1-yl)pyridine-3-carboxamide]

The next lines start with the molecule.

Row | SMILES | EC30 [nM]
17 | CCC(C)(C)C(=O)N1CCC=C(c2ccc(C(=O)NS(=O)(=O)c3cccc(N)n3)c(N3C[C@@H](C)CC3(C)C)n2)C1 [Compound 2612, N-[(6-amino-2-pyridyl)sulfonyl]-6-[1-(2,2-dimethylbutanoyl)-3,6-dihydro-2H-pyridin-5-yl]-2-[(4S)-2,2,4-trimethylpyrrolidin-1-yl]pyridine-3-carboxamide] | 3000 to 10000
18 | COc1cc(-c2ccc(C(=O)NS(=O)(=O)c3cccnc3N)c(N3C[C@@H](C)CC3(C)C)n2)ccc1O [Compound 2614, N-[(2-amino-3-pyridyl)sulfonyl]-6-(4-hydroxy-3-methoxy-phenyl)-2-[(4S)-2,2,4-trimethylpyrrolidin-1-yl]pyridine-3-carboxamide] | 3000 to 10000
19 | CCOc1cccc(S(=O)(=O)NC(=O)c2cccnc2N2CC(C)CC2(C)C)n1 (stereo not drawn) [Compound 2617, N-[(6-ethoxy-2-pyridyl)sulfonyl]-2-(2,2,4-trimethylpyrrolidin-1-yl)pyridine-3-carboxamide] | 3000 to 10000
20 | CC1CN(c2ncccc2C(=O)NS(=O)(=O)c2cccc(OCc3ccccc3)n2)C(C)(C)C1 (stereo not drawn) [Compound 2619, N-[(6-benzyloxy-2-pyridyl)sulfonyl]-2-(2,2,4-trimethylpyrrolidin-1-yl)pyridine-3-carboxamide] | < 3000
21 | CC1CN(c2ncccc2C(=O)NS(=O)(=O)c2cccc(N3CCN(c4ncccn4)CC3)n2)C(C)(C)C1 (stereo not drawn) [Compound 2621, N—[[6-(4-pyrimidin-2-ylpiperazin-1-yl)-2-pyridyl]sulfonyl]-2-(2,2,4-trimethylpyrrolidin-1-yl)pyridine-3-carboxamide] | 3000 to 10000
22 | CC(C)OC(=O)N1CCC=C(c2ccc(C(=O)NS(=O)(=O)c3cccc(N)n3)c(N3C[C@@H](C)CC3(C)C)n2)C1 [Compound 2622, isopropyl 5-[5-[(6-amino-2-pyridyl)sulfonylcarbamoyl]-6-[(4S)-2,2,4-trimethylpyrrolidin-1-yl]-2-pyridyl]-3,6-dihydro-2H-pyridine-1-carboxylate] | < 3000
23 | Cc1cc(C)cc(-c2ccc(C(=O)NS(=O)(=O)c3ccc[nH]c3=O)c(N3C[C@@H](C)CC3(C)C)n2)c1 [Compound 2626, 6-(3,5-dimethylphenyl)-N-[(2-oxo-1H-pyridin-3-yl)sulfonyl]-2-[(4S)-2,2,4-trimethylpyrrolidin-1-yl]pyridine-3-carboxamide] | < 3000
24 | CC1CN(c2ncccc2C(=O)NS(=O)(=O)c2cccc(OCC3OCc4ccccc4O3)n2)C(C)(C)C1 (stereo not drawn) [Compound 2627, N—[[6-(4H-1,3-benzodioxin-2-ylmethoxy)-2-pyridyl]sulfonyl]-2-(2,2,4-trimethylpyrrolidin-1-yl)pyridine-3-carboxamide] | < 3000
25 | CC(C)COc1ccccc1-c1ccc(C(=O)NS(=O)(=O)c2ccc[nH]c2=O)c(N2C[C@@H](C)CC2(C)C)n1 [Compound 2629, 6-(2-isobutoxyphenyl)-N-[(2-oxo-1H-pyridin-3-yl)sulfonyl]-2-[(4S)-2,2,4-trimethylpyrrolidin-1-yl]pyridine-3-carboxamide] | < 3000
26 | CC1CN(c2ncccc2C(=O)NS(=O)(=O)c2cccc(OCCC3CCCC3)n2)C(C)(C)C1 (stereo not drawn) [Compound 2630, N—[[6-(2-cyclopentylethoxy)-2-pyridyl]sulfonyl]-2-(2,2,4-trimethylpyrrolidin-1-yl)pyridine-3-carboxamide] | < 3000
27 | CC(C)COc1cc(F)cc(-c2ccc(C(=O)NS(=O)(=O)c3cccc(N)n3)c(N3CC(F)(F)CC3(C)C)n2)c1 [Compound 2631, N-[(6-amino-2-pyridyl)sulfonyl]-2-(4,4-difluoro-2,2-dimethyl-pyrrolidin-1-yl)-6-(3-fluoro-5-isobutoxy-phenyl)pyridine-3-carboxamide] | < 3000
28 | CC(C)COc1cc(F)cc(-c2ccc(C(=O)NS(=O)(=O)c3cccc(N)n3)c(N3C[C@@H](C)CC3(C)C)c2F)c1 [Compound 2634, N-[(6-amino-2-pyridyl)sulfonyl]-3-fluoro-4-(3-fluoro-5-isobutoxy-phenyl)-2-[(4S)-2,2,4-trimethylpyrrolidin-1-yl]benzamide] | < 3000
29 | CC(C)c1ccccc1-c1ccc(C(=O)NS(=O)(=O)c2ccc[nH]c2=O)c(N2C[C@@H](C)CC2(C)C)n1 [Compound 2635, 6-(2-isopropylphenyl)-N-[(2-oxo-1H-pyridin-3-yl)sulfonyl]-2-[(4S)-2,2,4-trimethylpyrrolidin-1-yl]pyridine-3-carboxamide] | < 3000
30 | CC1CN(c2ncccc2C(=O)NS(=O)(=O)c2cccc(NCc3cccc(F)c3F)n2)C(C)(C)C1 (stereo not drawn) [Compound 2640, N—[[6-[(2,3-difluorophenyl)methylamino]-2-pyridyl]sulfonyl]-2-(2,2,4-trimethylpyrrolidin-1-yl)pyridine-3-carboxamide] | < 3000
